# Assay results: publication PMC10201506 (Signal Transduction and Targeted Therapy, 2023)
# Experiments:
# SARS-CoV-2 delta variant [1] = tested on: SARS-CoV-2 delta variant; parameters: species or system K18-hACE2 mice; conditions: mouse, in vivo
# SARS-CoV-2 Delta variant [2] = experiment: microbe, parasite or virus in culture; type: cell-based; conditions: Severe acute respiratory syndrome coronavirus 2, Vero C1008, 24 h, read-out: EC50 Delta variant replication
# [3] = tested on: SARS-CoV-2 Omicron BA.1 variant; experiment: microbe, parasite or virus in culture; type: cell-based; conditions: Severe acute respiratory syndrome coronavirus 2, Vero C1008, 24 h, read-out: EC50 Omicron BA.1 variant replication
structure (smiles),measurement,setting,value
"O=C(c1cc(=O)[nH]c2ccccc12)N1CCN(c2ccc(Cl)c(Cl)c2)CC1CN1CCOCC1 (centres unmarked) [JZD-07, 4-(4-(3,4-Dichlorophenyl)-2-(morpholinomethyl)piperazine-1-carbonyl)quinolin-2(1H)-one]",immunohistochemistry staining of viral nucleocapsid protein in lungs,SARS-CoV-2 delta variant [1],suppressed viral titer in mice lungs
same,reduction of viral copy loads of the lung vs vehicle,SARS-CoV-2 delta variant [1],~1.0 log
same,reduction of viral titers of the lung vs vehicle,SARS-CoV-2 delta variant [1],2.0 log
same,EC50,SARS-CoV-2 Delta variant [2],7.24 µM
same,EC50,[3],6.03 µM
